How the values were obtained:
[1] = test system: prostaglandin E2-induced contractions of guinea pig ileum; test: Prostaglandin (PGE) Antagonism Assay (inhibition of prostaglandin E2-induced contractions of segments of guinea pig ileum); conditions: for PGE2 antagonism in guinea pig ileum: Dose Ratio at 3 × 10^-6 M: test compound 3 × 10^-6 M, 30 min incubation, dose ratio of PGE2 EC50 values, average where more than one determined
Protocol: (b) Prostaglandin (PGE) Antagonism Assay
In order to determine the effectiveness of several of the compounds of the present invention ("test compounds") as prostaglandin E2 antagonists,a prostaglandin antagonism assay was conducted, as described below, to determine the ability of these compounds to inhibit prostaglandin E2 -induced contractions of segments of guinea pig ileum.
Male albino guinea pigs weighing 200 to 500 grams were sacrificed by cervical dislocation. The ilea were then quickly removed from the guinea pigs and placed in a modified Tyrode solution, a solution which is known to those skilled in the art, containing one-half of the usual amount of magnesium ions.
Segments of ileum about 2 cm long were then cut and mounted in a 10 mL tissue bath containing the modified Tyrode solution. The solution was maintained at 37° C. and aerated with a gaseous mixture of 95% oxygen and 5% carbon dioxide. Data for a control prostaglandin E2 dose response curve plotting concentration of prostaglandin E2 versus the intensity of contractions, detected isotonically, was then obtained by experimentally adjusting the dose of the prostaglandin E2 being injected into the tissue bath, in a manner known by those of skill in the art.
Solutions or suspensions containing an initial concentration (3 micromolar) of a test compound in modified Tyrode solution ("test solutions/suspensions") were then separately substituted for the control bath solution. Each test solution/suspension was then kept in constant contact with the ileum tissue, except for brief periods to drain the bath in preparation for rinsing with fresh test solution/suspension. A second prostaglandin E2 dose response curve was then generated for prostaglandin E2 in the presence of a test compound.
A control dose response curve is produced in isolated segments of guinea pig ileum mounted in an automated apparatus with six concentrations of prostaglandin E2. A solution or suspension of test compound is substituted for the control bathing solution and is incubated for thirty minutes. An additional prostaglandin E2 dose response curve is then performed in the presence of the test compound. A dose ratio is calculated from the EC50 values obtained from duplicate replications on each concentration of the test compound.
A dose ratio of EC50 doses was calculated from the results of each test in a manner known by those of skill in the art, and described above.
The dose ratios reported in Table 1 represent an average of multiple dose ratios for those compounds for which more than one dose ratio was determined. The compounds of the present invention which were tested in this assay, and for which results are presented in Table 1, correspond to the particular examples specified in Table 1.
The pA2 value (a statistical constant which is a common measure of expressing the potency of a particular drug as a competitive antagonist), rather than the dose ratio, was calculated for the test compound shown and described in Example 6 by schild plot calculations, as described by H. O. Schild, "pA, A New Scale for the Measurement of Drug Antagonism," Br. J. Pharmacol, 2, 189 (1947), and is reported in Table 1.

[2] = test system: phenylbenzoquinone (PBQ)-induced writhing in mice; test: Writhing Assay (PBQ-induced writhing in mice, analgesic activity); type: in vivo, mouse (Charles River male albino mice); conditions: 30 mpk, i.g., 30 min before PBQ i.p., fraction of mice
Excerpt: The Writhing Assay is one of the most widely-used experimental procedures for measuring the analgesic activity of different narcotic and nonnarcotic analgesic agents, and involves the continuous, chemically-induced pain of visceral origin to an animal, such as a mouse or rat. [Gyires et al., Arch. int. Pharmacodyn, 267, 131-140 (1984); C. Vander Wende et al., Fed. Proc., 15, 494 (1956); Koster et al., Fed. Proc., 18, 412 (1959); and Witken et al., J. Pharmacol. exp. Ther., 133, 400-408 (1961).] Chemicals which may be used to induce this pain include phenylbenzoquinone (PBQ) and acetic acid. As a result of the chemical irritation to the animal, a characteristic stretching and writhing of the animal (dorsiflexion of the animal's back, extension of its hindlimbs and the strong contraction of its abdominal musculature) will generally occur. […] Drugs which reduce the number of writhes of the animal appear to restore the normal nociceptive threshold of the animal.
Charles River male albino mice, weighing 20 to 30 grams, were used in this assay.
Thirty minutes after intragastric administration to ten mice of 30 mg per kilogram of body weight of a compound of the present invention ("test compound"), […] per 10 g of body weight of a 0.025% w/v solution of PBQ was injected intraperitoneally into each mouse. Ten mice which were given saline in place of a test compound of the invention were used as a control group.
Five minutes later, each mouse was individually placed into a glass beaker for observation, and the number of writhes occurring during the following ten-minute period was counted.
A test compound was considered to have produced analgesia in a mouse if, in accordance with the conditions set forth above, and under the test criteria employed for this assay, after the administration of 30 mg per kilogram of body weight of a compound of the present invention to the mouse, the number of writhes elicited by a mouse injected with PBQ was equal to, or less than, one-half the median number of writhes recorded for the saline-treated control group of mice that day, as described by Taber in "Predictive Value of Analgesic Assays in Mice and Rats," Advances in Biochemical Psychopharmacology, 8, 191 (1974).
The results for the particular compounds of the present invention analyzed in this assay, and discussed in the examples identified below which correspond thereto, are presented in Table 1 hereinbelow as fractions under the heading "WRITHING ASSAY." The fractions indicate the number of mice out of eight or ten in which a test compound produced analgesia.
The standard initial screening dose of a test compound employed in this assay was 30 mpk […]. Generally, if this initial screening dose of the test compound produced analgesia in seven out of ten mice, then the effect of additional doses of the test compound on the writhing response was evaluated, and then the ED50 dose was generally calculated. (The slopes of the dose-response curves for all test compounds analyzed were compared as described by Tallarida and Murray, Manual of Pharmacologic Calculations, Page 11 (Springer Verlag, New York, 1981)).
All ED50 doses calculated are also presented in Table 1 hereinbelow under the heading "WRITHING ASSAY," but as whole numbers.

In the case of `O=C1OC(c2cccnc2)C2c3ccccc3Oc3ccc(Cl)cc3N12` (mixture of isomers) [Compounds 9a and 9b (Mixture), 6-chloro-1,13b-dihydro-1-(3-pyridyl)-3H-dibenz[b,f]-oxazolo[3,4-d][1,4]oxazepin-3-one], the “PGE2 antagonism in guinea pig ileum: Dose Ratio at 3 × 10^-6 M” value (shortened to “PGE2 antagonism … Dose Ratio at 3 × 10^-6 M”) [1] was 1.5.

`O=C1O[C@@H](c2ccncc2)[C@@H]2c3ccccc3Oc3ccc(Cl)cc3N12` (relative stereo) [Compound 6, trans-6-chloro-1,13b-dihydro-1-(4-pyridyl)-3H-dibenz-[b,f]oxazolo[3,4-d][1,4]oxazepin-3-one] was tested, and the “Writhing assay: number of mice out of eight or ten in which test compound produced analgesia” value (shortened to “Writhing assay: number”) [2] was 5/10 and the “PGE2 antagonism in guinea pig ileum: PA2 Value” ([1]; Schild plot) was 7.15.

`O=C1O[C@@H](c2ccncc2)[C@H]2c3ccccc3Oc3ccc(Cl)cc3N12` (relative stereo) [Compound 7, cis-6-chloro-1,13b-dihydro-1-(4-pyridyl)-3H-dibenz[b,f]oxazolo-[3,4-d][1,4]oxazepin-3-one] was tested, and the “Writhing assay: number” value [2] was 9/10 and the “PGE2 antagonism … Dose Ratio at 3 × 10^-6 M” value [1] was 1.5.

`O=C1O[C@@H](c2ccccn2)[C@@H]2c3ccccc3Oc3ccc(Cl)cc3N12` (relative stereo) [Compound 11, cis-6-chloro-1,13b-dihydro-1-(2-pyridyl)-3H-dibenz[b,f]oxazolo[3,4-d][1,4]-oxazepin-3-one] was tested, and the “Writhing assay: number” value [2] was 2/8 and the “PGE2 antagonism … Dose Ratio at 3 × 10^-6 M” value [1] was 8.6.

In the case of `COC(=O)c1ccc([C@@H]2OC(=O)N3c4cc(Cl)ccc4Oc4ccccc4[C@@H]23)cc1` (relative stereo) [Compound 17, 6-chloro-1,13b-dihydro-1-(4-carboxymethylphenyl)-3H-dibenz[b,f]-oxazolo[3,4-d][1,4]-oxazepin-3-one], the “PGE2 antagonism … Dose Ratio at 3 × 10^-6 M” value [1] was 2.3.

For `O=C1OC(c2ccccc2)C2c3ccccc3Oc3ccc(Cl)cc3N12` (single isomer, unassigned) [Compound 3, 6-chloro-1,13b-dihydro-1-phenyl-3H-dibenz[b,f]oxazolo-[3,4-d][1,4]oxazepin-3-one], the “Writhing assay: number” value [2] was 3/10 and the “PGE2 antagonism … Dose Ratio at 3 × 10^-6 M” value [1] was 43.6.

In the case of `O=C1OC(c2ccccc2)C2c3ccccc3Oc3ccc(Cl)cc3N12` (single isomer, unassigned) [Compound 4, 6-chloro-1,13b-dihydro-1-phenyl-3H-dibenz[b,f]oxazolo-[3,4-d][1,4]oxazepin-3-one], the “Writhing assay: number” value [2] was 3/10 and the “PGE2 antagonism … Dose Ratio at 3 × 10^-6 M” value [1] was 0.87.

For `O=C1N2C=Cc3ccccc3C2C2c3ccccc3Oc3ccc(Cl)cc3N12` (single isomer, unassigned) [Compound 28, 12-Chloro-15H-benz[b]isoquino[2',1':3,4]imidazo-1,5-d][benzoxazepin-15-one], the “PGE2 antagonism … Dose Ratio at 3 × 10^-6 M” value [1] was 3.5.

For `O=C1OC(c2ccncc2)c2c(Cl)ccc3c2N1Cc1ccccc1O3` (single isomer, unassigned; (+)) [Compound 5a, (+)-4-chloro-3-(4-pyridyl)-1H,3H,12H-[3,1]benzoxazino-[8,1-b,c][1,4]benzoxazepin-1-one], the “Writhing assay: number” value ([2]; 30 mg/kg) was 8/10 and the “PGE2 antagonism … Dose Ratio at 3 × 10^-6 M” value [1] was 5.2.

With `O=C1OC(c2cccnc2)c2c(Cl)ccc3c2N1Cc1ccccc1O3` (centres unmarked) [Compound 8, 4-chloro-3-(3-pyridyl)-1H,3H,12H-[3,1]-benzoxazino-[8,1-b,c][1,4]benzoxazepin-1-one] the “Writhing assay: number” value [2] was 5/10.

`O=C1OC(c2ccsc2)C2c3ccccc3Oc3ccc(Cl)cc3N12` (centres unmarked) [Compound 12, 6-chloro-1,13b-dihydro-1-(3-thienyl)-3H-dibenz[b,f]oxazolo[3,4-d][1,4]-oxazepin-3-one] was tested, and the “PGE2 antagonism … Dose Ratio at 3 × 10^-6 M” value [1] was 1.9.

For `O=C1OC(c2ccco2)c2c(Cl)ccc3c2N1Cc1ccccc1O3` (centres unmarked) [Compound 13, 4-chloro-3-(-2-furyl)-1H,3H,12H-[3,1]-benzoxazino-[8,1-b,c][1,4]benzoxazepin-1-one], the “PGE2 antagonism … Dose Ratio at 3 × 10^-6 M” value [1] was 4.4.

`O=C(O)Cc1ccc(C2OC(=O)N3c4cc(Cl)ccc4Oc4ccccc4C23)cc1` (centres unmarked) [Compound 16, 6-chloro-1,13b-dihydro-1-(-4-carboxymethlyphenyl)-3H-dibenz[b,f]-oxazolo-[3,4-d][1,4]oxazepin-3-one] was tested, and the “PGE2 antagonism … Dose Ratio at 3 × 10^-6 M” value [1] was 2.4.

For `O=C1OC2(CCC2)C2c3ccccc3Oc3ccc(Cl)cc3N12` (centres unmarked) [Compound 21, 6-Chloro-1,13b-dihydro-3H-spiro[dibenz[b,f]oxazolo-[3,4-d][1,4]oxazepin-1,1'-cyclobutan]-3-one], the “PGE2 antagonism … Dose Ratio at 3 × 10^-6 M” value [1] was 0.9.

With `O=C1OC2(CCCC2)C2c3ccccc3Oc3ccc(Cl)cc3N12` (centres unmarked) [Compound 22, 6-chloro-1,13H-spiro[dibenz[b,f]-oxazolo3,4-d][1,4]oxazepin-1,1'-cyclopentane-3-one] the “PGE2 antagonism … Dose Ratio at 3 × 10^-6 M” value [1] was 2.5.

`O=C1N2CCc3ccccc3C2C2c3ccccc3Oc3ccc(Cl)cc3N12` (centres unmarked) [Compound 29, 12-Chloro-17,18-dihydro-15H-benz[b]isoquino[2',1';3,4]-imidazo[1,5-d][1,4]benzoxazepin-15-one] was tested, and the “PGE2 antagonism … Dose Ratio at 3 × 10^-6 M” value [1] was 3.8.

With `O=c1[nH]c(-c2ccccc2)c2n1-c1cc(Cl)ccc1Oc1ccccc1-2` [Compound 30, 6-Chloro-1-phenyl-2H-dibenz[b,f]imidazo[1,5-d]-[1,4]oxazepin-3-one] the “PGE2 antagonism … Dose Ratio at 3 × 10^-6 M” value [1] was 2.1.

With `Cn1c(-c2ccccc2)c2n(c1=O)-c1cc(Cl)ccc1Oc1ccccc1-2` [Compound 31] the “PGE2 antagonism … Dose Ratio at 3 × 10^-6 M” value [1] was 1.4.

With `O=C1C2c3ccccc3Oc3ccc(Cl)cc3N2C(=O)N1c1ccccc1` (centres unmarked) [Compound 33, 6-Chloro-2-phenyl-2,13bH-dibenz[b,f]imidazo-[1,5-d][1,4]oxazepin-1,3-dione] the “PGE2 antagonism … Dose Ratio at 3 × 10^-6 M” value [1] was 4.3.

In the case of `O=C1C2c3ccccc3Oc3ccc(Cl)cc3N2C(=O)N1Cc1ccccc1` (centres unmarked) [Compound 34, 6-Chloro-2-phenylmethyl-2H,13bH-dibenz[b,f]-imidazo-[1,5-d][1,4]oxazepin-1,3-dione], the “PGE2 antagonism … Dose Ratio at 3 × 10^-6 M” value [1] was 3.6.
